Assay in all cases: DTP human tumour cell line panel, 48 h
For assay [1], the system named is OVCAR-4 ovarian.
Assay [2] has as its system NCI-H522 lung.
Assay [3] deals with COLO 205 colon.
Assay [4] deals with SW-620 colon.
The test system of assay [5] is UACC-62 melanoma.
Assay [6] deals with HOP-62 NSCLC.
Assay [7] deals with SK-OV-3 ovarian.
Assay [8] deals with XF 498 CNS.
In assay [9] the test system is SF-295 CNS.
Assay [10] has as its system K-562 leukemia.
In assay [11] the test system is NCI/ADR-RES ovarian.
Assay [12] deals with IGROV1 ovarian.
Assay [13] relates to HCT-116 colon.
Assay [14] deals with UACC-257 melanoma.
In assay [15] the test system is M14 melanoma.
The subject of assay [16] is CAKI-1 renal.
The subject of assay [17] is PC-3 prostate.
For assay [18], the system named is ACHN renal.
Assay [19] concerns MDA-N.
Assay [20] relates to DU-145 prostate.

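Five concentrations, 48 hours, 96-well plates. Definition used: TGI = concentration required for complete inhibition of growth.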

The record followed here is PubChem BioAssay (NCI).

A word on the TGI: it is the concentration at which net growth stops. A higher TGI goes with lower sensitivity of the cells. For the molecule `COc1cc(N=Nc2cccc(S(=O)(=O)O)c2)ccc1N=Nc1ccc(/C=C/c2ccc(-n3on3-c3ccc(/C=C/c4ccc(N=Nc5ccc(N=Nc6cccc(S(=O)(=O)O)c6)cc5OC)cc4S(=O)(=O)O)c(S(=O)(=O)O)c3)cc2S(=O)(=O)O)c(S(=O)(=O)O)c1`, the TGI in [1], in [2], in assay [3], in assay [4], in [5] and in assay [6] was above 100 µM throughout. For the same molecule, the TGI in [7], in assay [8], in assay [9], in assay [10], in assay [11] and in [12] was above 100 µM throughout. Moreover, the TGI in assay [13] and in assay [14] was above 100 µM in each case.
Consider `CCOP(=O)(COCCn1ncc(=O)[nH]c1=O)OCC`, for which the TGI in [2], in [15], in [16], in assay [3], in assay [4] and in [6] was above 100 µM in each case. In addition, the TGI in assay [17], in [18], in assay [19], in assay [11], in [20] and in assay [12] was above 100 µM in each case.
`O=C1NP23(OCCO2)Oc2ccccc2C3(C(F)(F)F)O1` (configuration not stated): the TGI in [1], in assay [2], in assay [15], in assay [5], in [7] and in [8] was above 100 µM each time. The concentration for total growth inhibition (TGI) in assay [9], in assay [10], in assay [18], in [13] and in assay [14] was above 100 µM each time.
Take `O=C(O)C1C2C=CC(C2)C1c1ccccc1` (configuration not stated): the TGI in assay [15], in assay [16], in [3], in assay [4], in assay [5] and in assay [6] was above 100 µM throughout. Moreover, the TGI in assay [7], in assay [17], in [9], in assay [10], in assay [18] and in [19] was above 100 µM each time. Moreover, the TGI in assay [11], in assay [20], in assay [13] and in assay [14] was above 100 µM each time.
In the case of `CC(=O)O/C(=C1\C[C@H]2[C@@H]3CC=C4C[C@@H](OC(C)=O)CC[C@]4(C)[C@H]3CC[C@]2(C)C1=O)C(F)(F)F`, the TGI turned out to be 61.4 µM in [1]; 8.99 µM in [2]; 15.2 µM in assay [15]; 24.3 µM in assay [16]; 25.7 µM in [3]; 19.8 µM in assay [4]. For the same molecule, the TGI was found to be 20.2 µM in assay [5]; 32.8 µM in [6]; 44.5 µM in assay [7]; 27.3 µM in assay [17]; 35.9 µM in assay [9]; 15.1 µM in assay [10]. Further, the TGI came out at 48 µM in assay [18]; 14.9 µM in [19]; 46.6 µM in assay [11]; 25.2 µM in assay [20]; 19.8 µM in [12]; 18.8 µM in assay [13]. For the same molecule, in assay [14], the concentration for total growth inhibition (TGI) amounted to 15.1 µM.
Turning to `N#CC(OC1OC(COC2OC(CO)C(O)C(O)C2O)C(O)C(O)C1O)c1ccccc1` (configuration not stated), the TGI in [1], in assay [2], in [16], in assay [3], in assay [4] and in assay [5] was above 225 µM throughout. Besides, the TGI in assay [6], in assay [7], in assay [8], in assay [9], in assay [10] and in [11] was above 225 µM in each case. In addition, the TGI in assay [12], in [13] and in assay [14] was above 225 µM in each case.
